{"source": "paper PMC7377239", "about": "“Cardiovascular Effects of Polychlorinated Biphenyls and Their Major Metabolites” (Environmental Health Perspectives, 2020)", "key": {"[1]": {"test_system": "iCell endothelial cells (human iPSC-derived ECs)", "assay": "Tube formation (tubulogenesis) assay in iCell endothelial cells, 18 h", "type": "cell-based", "conditions": "Homo sapiens, Endothelial cell, 18 hr; for activity at 0.1 µM: 0.10 µM", "summary_of_the_method": "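Tube formation was measured by calcein AM imaging after overnight compound exposure (37°C, 0.5% DMSO vehicle) of human iPSC-derived ECs, 7,500/well, on reduced-growth-factor Geltrex in starvation medium. Vehicle-normalized data fitted to four-parameter logistic; POD set at one vehicle SD; without response, 100 μM taken as NOAEL.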"}, "[2]": {"test_system": "HUVECs", "assay": "High-content imaging cytotoxicity in HUVECs, 24 h", "type": "cell-based, human", "conditions": "Homo sapiens, HUVEC, 24 h; for viability at 0.01 µM / activity at 0.01 µM / viability at 0.1 µM / activity at 0.1 µM / viability at 1 µM / activity at 1 µM / viability at 10 µM / activity at 10 µM / viability at 100 µM / activity at 100 µM: 0.00 µM = 100.00; for viability at 0.1 µM / activity at 0.1 µM: 0.10 µM", "summary_of_the_method": "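Point-of-departure values come from four-parameter logistic fits of vehicle-normalized (0.5% DMSO) imaging readouts, cutoff one SD of vehicle means, 100μM where no concentration–response. Cells: HUVEC monolayers, passages 1–5, treated 24 h at 37°C, 5% CO2, then Hoechst 33342/MitoTracker Orange/calcein AM stained, imaged at 10×.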"}, "[3]": {"conditions": "iPSC-EC tube formation, 0.00 µM control = 100.00, read-out: endo.mtl.18hr"}, "[4]": {"conditions": "iPSC-EC tube formation, 0.00 µM control = 100.00, read-out: endo.tlps.18hr"}, "[5]": {"conditions": "iPSC-EC tube formation, 0.00 µM control = 100.00, read-out: endo.tta.18hr"}, "[6]": {"conditions": "iPSC-EC tube formation, 0.00 µM control = 100.00, read-out: endo.ttl.18hr"}, "[7]": {"conditions": "HUVECs, 24 hr, read-out: huvec.cyto.24hr"}, "[8]": {"conditions": "HUVECs, 24 hr, read-out: huvec.mito.24hr"}, "[9]": {"conditions": "HUVECs, 24 hr, read-out: huvec.mitoint.24hr"}, "[10]": {"conditions": "HUVECs, 24 hr, read-out: huvec.nma.24hr"}, "[11]": {"conditions": "HUVECs, 24 hrs, read-out: huvec.tc.24hrs"}, "[12]": {"conditions": "endothelial cells (endo), tube formation mtl, read-out: POD endo.mtl.18hr"}, "[13]": {"conditions": "endothelial cells (endo), tube formation tlps, read-out: POD endo.tlps.18hr"}, "[14]": {"conditions": "endothelial cells (endo), tube formation tta, read-out: POD endo.tta.18hr"}, "[15]": {"conditions": "endothelial cells (endo), tube formation ttl, read-out: POD endo.ttl.18hr"}, "[16]": {"conditions": "cyto, 24 hr, read-out: POD huvec.cyto.24hr"}, "[17]": {"conditions": "mito, 24 hr, read-out: POD huvec.mito.24hr"}, "[18]": {"conditions": "mitoint, 24 hr, read-out: POD huvec.mitoint.24hr"}, "[19]": {"conditions": "nma, 24 hr, read-out: POD huvec.nma.24hr"}, "[20]": {"conditions": "tc, 24 hr, read-out: POD huvec.tc.24hr"}}, "note": "Counter-ions that a name gives are not always drawn. Like-named read-outs stand apart in the source and are kept apart here."}
{"smiles": "COc1ccc(-c2ccc(Cl)cc2)cc1", "note": "[4'-OMe PCB3]", "values": [{"measurement": "activity at 0.01 µM", "setting": "[1]; [3]", "result": 101, "unit": "%"}, {"measurement": "activity at 0.01 µM", "setting": "[1]; [4]", "result": 95.9, "unit": "%"}, {"measurement": "activity at 0.01 µM", "setting": "[1]; [5]", "result": 157, "unit": "%"}, {"measurement": "activity at 0.01 µM", "setting": "[1]; [6]", "result": 149, "unit": "%"}, {"measurement": "activity at 0.1 µM", "setting": "[1]; [3]", "result": 102, "unit": "%"}, {"measurement": "activity at 0.1 µM", "setting": "[1]; [4]", "result": 127, "unit": "%"}, {"measurement": "activity at 0.1 µM", "setting": "[1]; [5]", "result": 130, "unit": "%"}, {"measurement": "activity at 0.1 µM", "setting": "[1]; [6]", "result": 124, "unit": "%"}, {"measurement": "activity at 1 µM", "setting": "[1]; [3]", "result": 96, "unit": "%"}, {"measurement": "activity at 1 µM", "setting": "[1]; [4]", "result": 95, "unit": "%"}, {"measurement": "activity at 1 µM", "setting": "[1]; [5]", "result": 127, "unit": "%"}, {"measurement": "activity at 1 µM", "setting": "[1]; [6]", "result": 123, "unit": "%"}, {"measurement": "activity at 10 µM", "setting": "[1]; [3]", "result": 76, "unit": "%"}, {"measurement": "activity at 10 µM", "setting": "[1]; [4]", "result": 82.1, "unit": "%"}, {"measurement": "activity at 10 µM", "setting": "[1]; [5]", "result": 58.6, "unit": "%"}, {"measurement": "activity at 10 µM", "setting": "[1]; [6]", "result": 56.5, "unit": "%"}, {"measurement": "activity at 100 µM", "setting": "[1]; [3]", "result": 65.6, "unit": "%"}, {"measurement": "activity at 100 µM", "setting": "[1]; [4]", "result": 33, "unit": "%"}, {"measurement": "activity at 100 µM", "setting": "[1]; [5]", "result": 46.5, "unit": "%"}, {"measurement": "activity at 100 µM", "setting": "[1]; [6]", "result": 46.3, "unit": "%"}, {"measurement": "minimal effective concentration", "setting": "[1]; iPSC-EC tube formation, top concentration 100.00 µM, read-out: endo.mtl.18hr POD", "result": 3.4, "unit": "µM"}, {"measurement": "minimal effective concentration", "setting": "[1]; iPSC-EC tube formation, top concentration 100.00 µM, read-out: endo.tlps.18hr POD", "result": 12.3, "unit": "µM"}, {"measurement": "minimal effective concentration", "setting": "[1]; iPSC-EC tube formation, top concentration 100.00 µM, read-out: endo.tta.18hr POD", "result": 7.76, "unit": "µM"}, {"measurement": "minimal effective concentration", "setting": "[1]; iPSC-EC tube formation, top concentration 100.00 µM, read-out: endo.ttl.18hr POD", "result": 7.16, "unit": "µM"}, {"measurement": "viability at 0.01 µM", "setting": "[2]; [7]", "result": 87.9, "unit": "%"}, {"measurement": "activity at 0.01 µM", "setting": "[2]; [8]", "result": 86.7, "unit": "%"}, {"measurement": "activity at 0.01 µM", "setting": "[2]; [9]", "result": 91.6, "unit": "%"}, {"measurement": "activity at 0.01 µM", "setting": "[2]; [10]", "result": 101, "unit": "%"}, {"measurement": "viability at 0.1 µM", "setting": "[2]; [7]", "result": 99.3, "unit": "%"}, {"measurement": "activity at 0.1 µM", "setting": "[2]; [8]", "result": 98.5, "unit": "%"}, {"measurement": "activity at 0.1 µM", "setting": "[2]; [9]", "result": 97.3, "unit": "%"}, {"measurement": "activity at 0.1 µM", "setting": "[2]; [10]", "result": 98.2, "unit": "%"}, {"measurement": "viability at 1 µM", "setting": "[2]; [7]", "result": 94.1, "unit": "%"}, {"measurement": "activity at 1 µM", "setting": "[2]; [8]", "result": 93.8, "unit": "%"}, {"measurement": "activity at 1 µM", "setting": "[2]; [9]", "result": 91, "unit": "%"}, {"measurement": "activity at 1 µM", "setting": "[2]; [10]", "result": 96.4, "unit": "%"}, {"measurement": "viability at 10 µM", "setting": "[2]; [7]", "result": 94.1, "unit": "%"}, {"measurement": "activity at 10 µM", "setting": "[2]; [8]", "result": 92.9, "unit": "%"}, {"measurement": "activity at 10 µM", "setting": "[2]; [9]", "result": 94, "unit": "%"}, {"measurement": "activity at 10 µM", "setting": "[2]; [10]", "result": 92.3, "unit": "%"}, {"measurement": "viability at 100 µM", "setting": "[2]; [7]", "result": 70.2, "unit": "%"}, {"measurement": "activity at 100 µM", "setting": "[2]; [8]", "result": 70.1, "unit": "%"}, {"measurement": "activity at 100 µM", "setting": "[2]; [10]", "result": 73.7, "unit": "%"}, {"measurement": "minimal effective concentration", "setting": "[2]; HUVECs, 24 hr, top concentration 100.00 µM, read-out: huvec.cyto.24hr POD", "result": 8.6, "unit": "µM"}, {"measurement": "minimal effective concentration", "setting": "[2]; HUVECs, 24 hr, top concentration 100.00 µM, read-out: huvec.mito.24hr POD", "result": 5.97, "unit": "µM"}, {"measurement": "minimal effective concentration", "setting": "[2]; HUVECs, 24 hr, top concentration 100.00 µM, read-out: huvec.mitoint.24hr POD", "result": 32, "unit": "µM"}, {"measurement": "minimal effective concentration", "setting": "[2]; HUVECs, 24 hr, top concentration 100.00 µM, read-out: huvec.nma.24hr POD", "result": 1.41, "unit": "µM"}, {"measurement": "viability at 0.01 µM", "setting": "[2]; [11]", "result": 87.9, "unit": "%"}, {"measurement": "viability at 0.1 µM", "setting": "[2]; [11]", "result": 99.3, "unit": "%"}, {"measurement": "viability at 1 µM", "setting": "[2]; [11]", "result": 94.1, "unit": "%"}, {"measurement": "viability at 10 µM", "setting": "[2]; [11]", "result": 94.1, "unit": "%"}, {"measurement": "viability at 100 µM", "setting": "[2]; [11]", "result": 70.2, "unit": "%"}, {"measurement": "minimal effective concentration", "setting": "[2]; HUVECs, 24 hrs, top concentration 100.00 µM, read-out: huvec.tc.24hrs POD", "result": 8.6, "unit": "µM"}]}
{"smiles": "Oc1ccccc1-c1ccc(Cl)cc1", "note": "[2'-OH-PCB 3]", "values": [{"measurement": "minimal effective concentration", "setting": "[1]; [12]", "result": 13.4, "unit": "µM"}, {"measurement": "minimal effective concentration", "setting": "[1]; [13]", "result": 9.27, "unit": "µM"}, {"measurement": "minimal effective concentration", "setting": "[1]; [14]", "result": 29.9, "unit": "µM"}, {"measurement": "minimal effective concentration", "setting": "[1]; [15]", "result": 23.1, "unit": "µM"}, {"measurement": "minimal effective concentration", "setting": "[2]; [16]", "result": 5.19, "unit": "µM"}, {"measurement": "minimal effective concentration", "setting": "[2]; [17]", "result": 4.06, "unit": "µM"}, {"measurement": "minimal effective concentration", "setting": "[2]; [18]", "result": 34.4, "unit": "µM"}, {"measurement": "minimal effective concentration", "setting": "[2]; [19]", "result": 1.6, "unit": "µM"}, {"measurement": "minimal effective concentration", "setting": "[2]; [20]", "result": 5.19, "unit": "µM"}]}
{"smiles": "O=S(=O)(O)Oc1ccc(-c2cccc(Cl)c2)cc1Cl", "note": "[4-PCB 11 sulfate]", "values": [{"measurement": "minimal effective concentration", "setting": "[1]; [12]", "result": 25.3, "unit": "µM"}, {"measurement": "minimal effective concentration", "setting": "[1]; [13]", "result": 12.7, "unit": "µM"}, {"measurement": "minimal effective concentration", "setting": "[1]; [14]", "result": 21, "unit": "µM"}, {"measurement": "minimal effective concentration", "setting": "[1]; [15]", "result": 25.6, "unit": "µM"}, {"measurement": "minimal effective concentration", "setting": "[2]; [16]", "result": 48.8, "unit": "µM"}, {"measurement": "minimal effective concentration", "setting": "[2]; [17]", "result": 45.1, "unit": "µM"}, {"measurement": "minimal effective concentration", "setting": "[2]; [18]", "result": 10.8, "unit": "µM"}, {"measurement": "minimal effective concentration", "setting": "[2]; [19]", "result": 2.98, "unit": "µM"}, {"measurement": "minimal effective concentration", "setting": "[2]; [20]", "result": 48.8, "unit": "µM"}]}
